Laboratory results reported in the supplement of paper PMC10307832.

Experiments:
Test in all cases: relative viability (nuclei count vs DMSO), 5 days (fraction); higher = more cells survive
[1] = test system: HOP-62
How it was run: (§1)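 Cells from lung cancer lines were seeded into 1536-well plates and, one day later, dosed by pin tool. Treatments were either a single drug or a fixed dose of an anchor drug with five library-drug doses (not always all listed) in √10 steps. After 5 days, nuclei were stained in a one-step fixation (final 0.05% Triton X-100, 1% formaldehyde, 1 ug/ml Hoechst) and counted on 4× images, and relative viability is the treated-to-vehicle nuclei ratio, as the median of duplicate plates.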

[2] = test system: LK-2
How it was run: as §1

[3] = test system: SK-MES-1
How it was run: as §1

[4] = test system: H3255
How it was run: as §1

[5] = test system: ABC-1
How it was run: as §1

[6] = test system: NCI-H1651
How it was run: as §1

[7] = test system: 201T
How it was run: as §1

[8] = test system: PC-14
How it was run: as §1

[9] = test system: NCI-H2009
How it was run: as §1

[10] = test system: ChaGo-K-1
How it was run: as §1

[11] = test system: LXF-289
How it was run: as §1

[12] = test system: NCI-H2126
How it was run: as §1

[13] = test system: NCI-H3122
How it was run: as §1

[14] = test system: NCI-H596
How it was run: as §1

[15] = test system: NCI-H647
How it was run: as §1

[16] = test system: NCI-H441
How it was run: as §1

[17] = test system: NCI-H322M
How it was run: as §1

[18] = test system: NCI-H2087
How it was run: as §1

[19] = test system: CAL-12T
How it was run: as §1

[20] = test system: EMC-BAC-2
How it was run: as §1

[21] = test system: NCI-H1755
How it was run: as §1

[22] = test system: NCI-H1734
How it was run: as §1

[23] = test system: NCI-H2170
How it was run: as §1

## O=C(O)CCCCC(CCSCc1ccccc1)SCc1ccccc1 (stereo not given) [CPI-613] + CS(=O)(=O)N1CCN(Cc2cc3nc(-c4cccc5[nH]ncc45)nc(N4CCOCC4)c3s2)CC1 [Pictilisib] (partner 1 µM)
[1]; first compound 5 µM
  relative viability: 0.526
[1]; first compound 15.81 µM
  relative viability: 0.7
[1]; first compound 50 µM
  relative viability: 0.704
[1]; first compound 158.11 µM
  relative viability: 0.496
[1]; first compound 500 µM
  relative viability: 0.0332
[2]; first compound 5 µM
  relative viability: 0.583
[2]; first compound 15.81 µM
  relative viability: 0.494
[2]; first compound 50 µM
  relative viability: 0.535
[2]; first compound 158.11 µM
  relative viability: 0.554
[2]; first compound 500 µM
  relative viability: 0.472
[3]; first compound 5 µM
  relative viability: 0.368
[3]; first compound 15.81 µM
  relative viability: 0.314
[3]; first compound 50 µM
  relative viability: 0.363
[3]; first compound 158.11 µM
  relative viability: 0.399
[3]; first compound 500 µM
  relative viability: 0.371
[4]; first compound 5 µM
  relative viability: 0.512
[4]; first compound 15.81 µM
  relative viability: 0.462
[4]; first compound 50 µM
  relative viability: 0.452
[4]; first compound 158.11 µM
  relative viability: 0.472
[4]; first compound 500 µM
  relative viability: 0.43
[5]; first compound 5 µM
  relative viability: 0.771
[5]; first compound 15.81 µM
  relative viability: 0.68
[5]; first compound 50 µM
  relative viability: 0.807
[5]; first compound 158.11 µM
  relative viability: 0.384
[5]; first compound 500 µM
  relative viability: 0.246
[6]; first compound 5 µM
  relative viability: 0.591
[6]; first compound 15.81 µM
  relative viability: 0.504
[6]; first compound 50 µM
  relative viability: 0.572
[6]; first compound 158.11 µM
  relative viability: 0.331
[6]; first compound 500 µM
  relative viability: 0.0986
[7]; first compound 5 µM
  relative viability: 0.722
[7]; first compound 15.81 µM
  relative viability: 0.654
[7]; first compound 50 µM
  relative viability: 0.667
[7]; first compound 158.11 µM
  relative viability: 0.665
[7]; first compound 500 µM
  relative viability: 0.647
[8]; first compound 5 µM
  relative viability: 0.747
[8]; first compound 15.81 µM
  relative viability: 0.677
[8]; first compound 50 µM
  relative viability: 0.637
[8]; first compound 158.11 µM
  relative viability: 0.725
[8]; first compound 500 µM
  relative viability: 0.526
[9]; first compound 5 µM
  relative viability: 0.855
[9]; first compound 15.81 µM
  relative viability: 0.675
[9]; first compound 50 µM
  relative viability: 0.722
[9]; first compound 158.11 µM
  relative viability: 0.0928
[9]; first compound 500 µM
  relative viability: 0.0311
[10]; first compound 5 µM
  relative viability: 0.519
[10]; first compound 15.81 µM
  relative viability: 0.663
[10]; first compound 50 µM
  relative viability: 0.707
[10]; first compound 158.11 µM
  relative viability: 0.612
[10]; first compound 500 µM
  relative viability: 0.33
[11]; first compound 5 µM
  relative viability: 0.716
[11]; first compound 15.81 µM
  relative viability: 0.752
[11]; first compound 50 µM
  relative viability: 0.728
[11]; first compound 158.11 µM
  relative viability: 0.479
[11]; first compound 500 µM
  relative viability: 0.0147
[12]; first compound 5 µM
  relative viability: 0.539
[12]; first compound 15.81 µM
  relative viability: 0.457
[12]; first compound 50 µM
  relative viability: 0.499
[12]; first compound 158.11 µM
  relative viability: 0.395
[12]; first compound 500 µM
  relative viability: 0.393
[13]; first compound 5 µM
  relative viability: 0.587
[13]; first compound 15.81 µM
  relative viability: 0.614
[13]; first compound 50 µM
  relative viability: 0.591
[13]; first compound 158.11 µM
  relative viability: 0.605
[13]; first compound 500 µM
  relative viability: 0.031
[14]; first compound 5 µM
  relative viability: 0.423
[14]; first compound 15.81 µM
  relative viability: 0.442
[14]; first compound 50 µM
  relative viability: 0.435
[14]; first compound 158.11 µM
  relative viability: 0.339
[14]; first compound 500 µM
  relative viability: 0.0372
[15]; first compound 5 µM
  relative viability: 0.58
[15]; first compound 15.81 µM
  relative viability: 0.315
[15]; first compound 50 µM
  relative viability: 0.384
[15]; first compound 158.11 µM
  relative viability: 0.424
[15]; first compound 500 µM
  relative viability: 0.412
[16]; first compound 5 µM
  relative viability: 0.498
[16]; first compound 15.81 µM
  relative viability: 0.468
[16]; first compound 50 µM
  relative viability: 0.417
[16]; first compound 158.11 µM
  relative viability: 0.147
[16]; first compound 500 µM
  relative viability: 0.0254
[17]; first compound 5 µM
  relative viability: 0.511
[17]; first compound 15.81 µM
  relative viability: 0.426
[17]; first compound 50 µM
  relative viability: 0.496
[17]; first compound 158.11 µM
  relative viability: 0.469
[17]; first compound 500 µM
  relative viability: 0.53
[18]; first compound 5 µM
  relative viability: 0.87
[18]; first compound 15.81 µM
  relative viability: 0.702
[18]; first compound 50 µM
  relative viability: 0.733
[18]; first compound 158.11 µM
  relative viability: 0.587
[18]; first compound 500 µM
  relative viability: 0.0127
[19]; first compound 5 µM
  relative viability: 0.255
[19]; first compound 15.81 µM
  relative viability: 0.393
[19]; first compound 50 µM
  relative viability: 0.453
[19]; first compound 158.11 µM
  relative viability: 0.385
[19]; first compound 500 µM
  relative viability: 0.102
[20]; first compound 5 µM
  relative viability: 0.549
[20]; first compound 15.81 µM
  relative viability: 0.483
[20]; first compound 50 µM
  relative viability: 0.556
[20]; first compound 158.11 µM
  relative viability: 0.556
[20]; first compound 500 µM
  relative viability: 0.133
[21]; first compound 5 µM
  relative viability: 0.39
[21]; first compound 15.81 µM
  relative viability: 0.4
[21]; first compound 50 µM
  relative viability: 0.415
[21]; first compound 158.11 µM
  relative viability: 0.359
[21]; first compound 500 µM
  relative viability: 0.116
[22]; first compound 5 µM
  relative viability: 0.466
[22]; first compound 15.81 µM
  relative viability: 0.383
[22]; first compound 50 µM
  relative viability: 0.434
[22]; first compound 158.11 µM
  relative viability: 0.274
[22]; first compound 500 µM
  relative viability: 0.113
[23]; first compound 5 µM
  relative viability: 0.293
[23]; first compound 15.81 µM
  relative viability: 0.307
[23]; first compound 50 µM
  relative viability: 0.256
[23]; first compound 158.11 µM
  relative viability: 0.293
[23]; first compound 500 µM
  relative viability: 0.0903
